Series [1] can be described thus: Transdermal penetration study of Mx released by Mx-COL-MBs (Franz diffusion cell). The conditions noted are these: Mx 0.3 mg/ml; for Amount of skin penetration (cumulative Mx penetration amount): 18th hour; for Amount of total penetration: 18 hours; for Amount of skin absorption: after 18 hours. Type of series: in vitro ADME, porcine. The protocol:
Transdermal Penetration Study of Mx Released by Mx-COL-MBs
The procedures of the study included: interposing a piece of 3 mm-thick porcine ear skin between a donor cell and a receptor cell of the Franz diffusion cell at a temperature of 37±0.5° C. 1 ml of any one of the abovementioned 6 solutions was applied to the donor cell facing the stratum corneum (SC) side, enabling the MB, Mx, or Mx-COL-MB to penetrate the Parafilm on a bottom of the donor cell and reach the skin. Besides, the receptor cell facing the dermis side was filled with 12 ml of PBS at pH 7.4, accompanied with magnetic stirring at the rate of 600 rpm and 0.01% gentamicin to prevent bacterial degradation of the Mx during the penetration process. At the 0.5th hr, a 1-MHz ultrasound sonicator was positioned 3 mm from the top of the skin, and the skin was sonicated at a power density of 3 W/cm^2 for 1 min. At the time intervals of 0.5, 1, 2, 3, 4, 5, 6, 8, 12 and 18 hours, 1 ml of receptor solution sample filtered by 0.2-μm pores was extracted from the receptor cell to measure the Mx content in the receptor solution, with the receptor solution refilled each time with the same volume of PBS. After 18 hours, the porcine skin sample was washed and then homogenized with 1 ml of the receptor solution. The supernatant was centrifuged to acquire further supernatant to measure the absorbed amount of Mx in the porcine ear skin.

For another series, the system named is C57BL/6 mice. In words: Study of animal hair growth (skin luminosity of shaved back). Type of series: in vivo. As to conditions: for number of mice with significantly lower skin luminosity: day 10, Mx 0.3 mg/ml topical; for hair growth rate: day 16, Mx 0.3 mg/ml. The protocol: Study of Animal Hair Growth
The study utilized 6-week-old C57BL/6 mice weighing 20-25 g, which were shaved at an area of about 10 cm^2 in the back at 8 weeks old, when all of the hair follicles were synchronized in the telogen phase. […] Among all groups, the US treatment was applied at 3 W/cm^2 for 1 min, and the concentration of Mx was 0.3 mg/ml (i.e. 0.5 ml/cm^2) in all groups. The change in skin luminosity of the shaved area was assessed using the Chroma Meter. The hair growth rate was calculated according to the following equation: Hair growth rate (%)=(L1−Ln)/L1×100%
where L1 is the luminosity index of the shaved area, and Ln is the luminosity index of the area at different time intervals.

Series [2] in a line: Study of transdermal penetration depth (FITC). The conditions noted are these: 0.1 mg FITC, retained 6 hr on porcine ear skin. On the procedure: Study of Transdermal Penetration Depth
Each group contained 0.1 mg FITC (fluorescein isothiocyanate), and was uniformly loaded onto the porcine ear skin with an area of 4.5 cm^2 and a thickness of 3 mm, sonicated by the 1-MHz ultrasound sonicator successively at power density of 3 W/cm^2, with each sonication period of 1 min. After sonication, the FITC (and the MBs) retained on the porcine ear skin for 6 hr, and was then washed away.
FIG. 7A-7C are bright-field images, and FIG. 7D-7F are dark-field fluorescent images.

[3] abbreviates: with ultrasound treatment 3 W/cm^2, 1 min.
[4] abbreviates: with US treatment 3 W/cm^2, 1 min.

Values joined by “and” are separate entries in the source; they are usually repeats but may differ in a detail not shown here. Identical values can stand only once.

Turning to `Nc1cc(N2CCCCC2)nc(N)[n+]1[O-]` [Comparative example 4, Minoxidil], in series [1] (without ultrasound treatment), the “Amount of skin penetration (cumulative Mx penetration amount)” value is 103.1 ± 0.5 µg/mL and 103.1 ± 0.51 µg/mL; the “Amount of total penetration” value is 155.54 ± 10.05 µg/mL; the “Amount of skin absorption” value came out at 52.42 ± 9.55 µg/mL. In addition, in the series on C57BL/6 mice (without US treatment), the “number of mice with significantly lower skin luminosity” value was 1 and the hair growth rate turned out to be 45.5%.

In the case of `Nc1cc(N2CCCCC2)nc(N)[n+]1[O-]` [Comparative example 8, Minoxidil], in series [1] (setting [3]), the “Amount of skin penetration (cumulative Mx penetration amount)” value was 113.0 ± 6.0 µg/mL and 113.01 ± 5.95 µg/mL; the “Amount of total penetration” value was determined as 126.04 ± 7.52 µg/mL; the “Amount of skin absorption” value was determined as 33.02 ± 1.56 µg/mL. Besides, in the series on C57BL/6 mice (setting [4]), the “number of mice with significantly lower skin luminosity” value was determined as 1 and the hair growth rate turned out to be 64.5%.

Take “fluorescein isothiocyanate [Comparative example 6]”: in series [2] (without US treatment), the “penetration depth of FITC” value is on record as 312±19 μm.

As for “fluorescein isothiocyanate [Comparative example 7]”, the “penetration depth of FITC” value in series [2] (with US treatment 1 MHz, 3 W/cm^2, 1 min) is 405±23 μm.

For the origin of these results see patent US9974787B2, “Modified albumin microbubble” (National Taiwan University of Science and Technology, priority 2016, dated 2018).
